{"source": "patent US7550456B2", "about": "“Substituted aryl cycloalkanoyl derivatives and methods of their use” (Wyeth, priority 2003, dated 2009)", "note": "Counter-ions that a name gives are not always drawn."}
{"target": "T1, human hNET (Homo sapiens, UniProt P23975)", "T1 construct": "expressed in transfected cells; host or cells: MDCK-Net6 (MDCK cells, stably transfected)", "T1 sequence (P23975 whole entry)": "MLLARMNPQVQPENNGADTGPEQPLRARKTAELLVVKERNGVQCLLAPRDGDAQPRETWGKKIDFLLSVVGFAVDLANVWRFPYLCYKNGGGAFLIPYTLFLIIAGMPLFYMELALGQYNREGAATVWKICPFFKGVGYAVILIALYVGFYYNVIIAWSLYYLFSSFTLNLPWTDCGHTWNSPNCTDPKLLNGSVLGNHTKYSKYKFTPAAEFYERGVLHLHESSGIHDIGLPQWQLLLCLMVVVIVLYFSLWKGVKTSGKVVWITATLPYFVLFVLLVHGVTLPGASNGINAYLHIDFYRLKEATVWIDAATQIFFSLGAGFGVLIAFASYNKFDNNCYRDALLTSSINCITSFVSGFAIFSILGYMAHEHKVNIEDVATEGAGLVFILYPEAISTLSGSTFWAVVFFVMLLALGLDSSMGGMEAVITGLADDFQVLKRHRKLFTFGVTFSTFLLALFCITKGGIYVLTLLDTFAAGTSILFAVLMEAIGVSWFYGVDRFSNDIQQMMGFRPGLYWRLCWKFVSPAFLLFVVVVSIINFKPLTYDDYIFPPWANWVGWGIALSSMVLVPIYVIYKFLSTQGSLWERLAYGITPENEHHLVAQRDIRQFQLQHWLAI", "assay": "Norepinephrine (NE) uptake assay in MDCK-Net6 cells", "type": "cell-based", "details": "1 μM test compound, [3H]NE uptake, read-out: % Inhibition @ 1 μM (hNET)", "summary_of_the_method": "(§1)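 Radiolabelled NE uptake was counted by scintillation after NaOH lysis, with 1 µM desipramine defining non-specific uptake. EC50 came from a logistic dose-response fit.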", "units": {"inhibition at 1 µM": "%"}}
{"compound": "CC(C)(CO)N1CCN(CC(c2cccc(OC(F)(F)F)c2)C2(O)CCCCC2)CC1", "note": "(stereo not drawn) [Example 373, 1-{2-[4-(2-hydroxy-1,1-dimethylethyl)piperazin-1-yl]-1-[3-(trifluoromethoxy)phenyl]ethyl}cyclohexanol dihydrochloride]", "inhibition at 1 µM": 90}
{"compound": "OC1(C(CN2CCN(CC3CCCCC3)CC2)c2cccc(Oc3ccccc3)c2)CCCCC1", "note": "(stereo not drawn) [Example 313, 1-[2-[4-(cyclohexylmethyl)piperazin-1-yl]-1-(3-phenoxyphenyl)ethyl]cyclohexanol dihydrochloride]", "inhibition at 1 µM": 57.3}
{"compound": "C[C@H]1CN(C[C@H](c2cccc(OC(F)(F)F)c2)C2(O)CCCCC2)CCN1", "note": "[Example 348, 1-{(1S)-2-[(3S)-3-methylpiperazin-1-yl]-1-[3-(trifluoromethoxy)phenyl]ethyl}cyclohexanol dihydrochloride]", "inhibition at 1 µM": 91}
{"compound": "CN1CCN(CC(c2ccc(OCc3ccccc3C(F)(F)F)c(Cl)c2)C2(O)CCCCC2)CC1", "note": "(stereo not drawn) [Example 422, 1-[1-(3-chloro-4-{[2-(trifluoromethyl)benzyl]oxy}phenyl)-2-(4-methylpiperazin-1-yl)ethyl]cyclohexanol dihydrochloride]", "inhibition at 1 µM": 20}
{"compound": "OC1(C(CN2CCNCC2)c2ccc(OCc3ccc4ccccc4c3)c(Cl)c2)CCCCC1", "note": "(stereo not drawn) [Example 427, 1-{1-[3-chloro-4-(2-naphthylmethoxy)phenyl]-2-piperazin-1-ylethyl}cyclohexanol dihydrochloride]", "inhibition at 1 µM": 33}
{"compound": "OC1(C(CN2CCNCC2)c2cccc(OC(F)(F)F)c2)CCC1", "note": "(stereo not drawn) [Example 46, 1-{2-piperazin-1-yl-1-[3-(trifluoromethoxy)phenyl]ethyl}cyclobutanol dihydrochloride]", "inhibition at 1 µM": 44}
{"compound": "C=Cc1cccc(C(CN2CCNCC2)C2(O)CCCCC2)c1", "note": "(stereo not drawn) [Example 162, 1-[2-piperazin-1-yl-1-(3-vinylphenyl)ethyl]cyclohexanol dihydrochloride]", "inhibition at 1 µM": 78}
{"compound": "CN1CCN(CC(c2ccc(OCC3CCCCC3)cc2)C2(O)CCCCC2)CC1", "note": "(stereo not drawn) [Example 468, 1-[1-[4-(cyclohexylmethoxy)phenyl]-2-(4-methylpiperazin-1-yl)ethyl]cyclohexanol dihydrochloride]", "inhibition at 1 µM": 0}
{"target": "T1, human hNET", "assay": "Norepinephrine (NE) uptake assay in MDCK-Net6 cells", "type": "cell-based", "details": "[3H]NE uptake, test range 1 to 10,000 nM", "summary_of_the_method": "as §1", "units": {"EC50": "nM"}}
{"compound": "C=Cc1cccc(C(CN2CCNCC2)C2(O)CCCCC2)c1", "note": "(stereo not drawn) [Example 162, 1-[2-piperazin-1-yl-1-(3-vinylphenyl)ethyl]cyclohexanol dihydrochloride]", "EC50": 410}
